Source: patent publication US20220031871A1, “ANTIBODIES FOR CHELATED RADIONUCLIDES AND CLEARING AGENTS” (Hoffmann-La Roche Inc., priority 2018, published 2022)
Marks after values point to notes of the source that are not given here.

Legend:
LS174T tumors = assay: Protocol 93b: efficacy and biodistribution of CEA-PRIT; format: in vivo, SCID mice
Description: The bispecific antibodies were compared side-by-side in single- and double-cycle treatment regimens.
Groups A-G represent the treated mice that were followed up for assessment of efficacy, whereas groups H-L comprise mice that were sacrificed for biodistribution purposes 24 h after their last ^212Pb-DOTAM injection.
Solid xenografts were established by subcutaneous injection of cells in RPMI (BxPC3) or DMEM (LS174T) media mixed 1:1 with Corning® Matrigel® basement membrane matrix (growth factor reduced; cat No. 354230).
For protocol 93b, mice (age 9 weeks) were injected s.c. into the right flank with 1×10^6 LS174T cells (passage 26) in 100 μl DMEM/Matrigel. Three days after tumor cell injection, mice were sorted into experimental groups with an average tumor volume of 150 mm^3.
To minimize re-ingestion of radioactive urine/feces after treatment cycle 1, cages were changed 4 hours after ^212Pb-DOTAM administration, and then again at 24 h p.i. For cycle 2, mice were placed in cages with grilled floors for 4 hours after ^212Pb-DOTAM administration, before being transferred to new cages with standard bedding. All cages were then changed at 24 h p.i., as after cycle 1. The tumor development in the mice was followed through repeated calipering three times a week. If needed, additional calipering was performed in the gaps between scheduled measurements. The body weight of the animals was measured repeatedly in the same fashion. Mice whose tumor volume reached 3000 mm^3 were immediately euthanized. Other factors taken into account for euthanasia for ethical reasons were body weight loss, tumor status (e.g. ulceration) and general appearance of the animal. Wet food was provided to all animals starting from five days after the radioactive injection if mandated by an acute loss of body weight (collective or individual) due to radiation-induced toxicity, until all individuals had recovered sufficiently.
The following organs and tissues were harvested from groups A-G at the time of euthanasia: bladder, ovaries, liver, spleen, kidneys, femur (including bone marrow), colon, jejunum, stomach, and tumor. Unexpected or abnormal conditions were noted and photographed. Tissues were immediately put in 10% neutral buffered formalin (4° C.) and then transferred to PBS (4° C.) after 5 days. The formalin-fixed samples were then shipped to Roche Pharma Research and Early Development, Roche Innovation Center Basel, for further processing and analysis.
Mice in groups H, J, and L were sacrificed and necropsied 24 hours after their first and only injection of ^212Pb-DOTAM; groups I and K were sacrificed and necropsied 24 hours after their second ^212Pb-DOTAM injection. The following organs and tissues were harvested: blood, bladder, small intestine, colon, spleen, pancreas, kidneys, liver, lung, heart, femoral bone, muscle, tail, and tumor. Collected samples were weighed and measured for radioactivity, and the percent injected dose per gram of tissue (% ID/g) subsequently calculated, including corrections for decay and background.

s.c. BxPC3 tumors = assay: Protocol 146: radiation dosimetry (absorbed doses, MIRD); format: in vivo, SCID mice; settings: for Mean absorbed dose, RBE = 1 / Mean absorbed dose, RBE = 5: 20 μCi, pretargeted, tumor-bearing SCID
Description: Absorbed doses were calculated following the formalism outlined in Pamphlet No. 21 from the Medical Internal Radiation Dose (MIRD) Committee (Bolch W E, Eckerman K F, Sgouros G, and Thomas S R. J Nucl Med 2009; 50:477-484). Formally, the absorbed dose D(rT) in a target tissue or region rT is calculated as the time-integral of the activity A(rs,t) multiplied by the absorbed dose rate per unit activity S(rT←rs) summed over all source regions rs. Given that the vast majority of energy released by the ^212Pb decay chain comes from alpha radiation and furthermore by the much higher biological effectiveness of alpha radiation (as characterized by the relative biological effectiveness, RBE) two approximations were made: • 1. the energy is absorbed locally due to the short range of the alpha particles, which means that only the term s(rT←rT) is Considered, and • 2. the contribution from beta and gamma radiation is neglected.
With Δα being the energy released by alpha decays, or rather the sum of the mean energies released by alpha decays in the decay chain of ^212Pb, here expressed in units […], the absorbed dose in a target tissue or region rT is calculated by the formula: […]
The calculations are based on the composite (average) decay-corrected radioactive concentration at time t, expressed as [% ID^t/g]t. In a first step, these are transformed into radioactive concentrations as μCi per kg tissue weight for the target tissue rT:
AQ[μCi] is the injected activity and λ is the exponential decay rate for ^212Pb, 0.0651 h^−1 (corresponding to the 10.6-hour half-life).
In a second step, the radioactive concentration was integrated over time for each tissue. This was achieved using the “Linear Log Trapezoidal calculation method” in the pharmacokinetic software Phoenix WinNonlin 6.4 (Certara USA, Inc., 100 Overlook Center, Suite 101, Princeton, N.J. 08540 USA). The model type “Plasma” was used with uniform weighting.
In the final step, absorbed doses were calculated by multiplying the time integrals of the radioactive concentration by the energy release Δα=170·10^−6J/(μCi·h).
The mean absorbed doses in Gy calculated for protocol 146 are shown in Table 24, both as absolute values (RBE=1) and corrected for the higher cytotoxicity of alpha emitters (RBE=5).

[1] = labelled group 30 + 30 μCi 212Pb-DOTAM, multiple test level = 0.00238

NC(=O)CN1CCN(CC(N)=O)CCN(CC(N)=O)CCN(CC(N)=O)CC1.[212Pb+2] [^212Pb-DOTAM] was tested, and the TGI (LS174T tumors; day 22, 30+30 μCi, compared with PBS) was 64.7%, the “Pairwise Log-Rank Test, survival, p vs PRIT-0175 30 + 30 μCi” value (LS174T tumors; [1]) was 0.0090* and the “Pairwise Log-Rank Test, survival, p vs PRIT-0213 30 + 30 μCi” value (LS174T tumors; [1]) was <0.0001*. The “Pairwise Log-Rank Test, survival, p vs PRIT-0213 30 μCi” value (LS174T tumors; [1]) was “<.0001*”, the “Pairwise Log-Rank Test, survival, p vs PRIT-0214 30 + 30 μCi” value (LS174T tumors; [1]) was “<.0001*” and the “Pairwise Log-Rank Test, survival, p vs PRIT-0214 30 μCi” value (LS174T tumors; [1]) was 0.0091*. For the same compound, the “Pairwise Log-Rank Test, survival, p vs Vehicle (PBS)” value (LS174T tumors; [1]) was 0.0034*, the “Pairwise Wilcoxon Test, survival, p vs PRIT-0175 30 + 30 μCi” value (LS174T tumors; [1]) was 0.0417* and the “Pairwise Wilcoxon Test, survival, p vs PRIT-0213 30 + 30 μCi” value (LS174T tumors; [1]) was 0.0002*. The “Pairwise Wilcoxon Test, survival, p vs PRIT-0213 30 μCi” value (LS174T tumors; [1]) was 0.0002*, the “Pairwise Wilcoxon Test, survival, p vs PRIT-0214 30 + 30 μCi” value (LS174T tumors; [1]) was 0.0002* and the “Pairwise Wilcoxon Test, survival, p vs PRIT-0214 30 μCi” value (LS174T tumors; [1]) was 0.0160*. The “Pairwise Wilcoxon Test, survival, p vs Vehicle (PBS)” value (LS174T tumors; [1]) was 0.0111*, the “absorbed dose in most normal tissues, except bladder” value (s.c. BxPC3 tumors; 20 μCi ^212Pb-DOTAM, RBE=1) was “below 2 Gy” and the “Mean absorbed dose, RBE = 1” value (s.c. BxPC3 tumors; Abdominal fat) was 1.25 Gy. The “Mean absorbed dose, RBE = 5” value (s.c. BxPC3 tumors; Abdominal fat) was 6.25 Gy, the “Mean absorbed dose, RBE = 1” value (s.c. BxPC3 tumors; Bladder) was 6.53 Gy and the “Mean absorbed dose, RBE = 5” value (s.c. BxPC3 tumors; Bladder) was 32.64 Gy. For the same compound, the “Mean absorbed dose, RBE = 1” value (s.c. BxPC3 tumors; Blood) was 0.72 Gy, the “Mean absorbed dose, RBE = 5” value (s.c. BxPC3 tumors; Blood) was 3.60 Gy and the “Mean absorbed dose, RBE = 1” value (s.c. BxPC3 tumors; Brain) was 0.04 Gy. For the same compound, the “Mean absorbed dose, RBE = 5” value (s.c. BxPC3 tumors; Brain) was 0.19 Gy, the “Mean absorbed dose, RBE = 1” value (s.c. BxPC3 tumors; Colon) was 0.43 Gy and the “Mean absorbed dose, RBE = 5” value (s.c. BxPC3 tumors; Colon) was 2.17 Gy. For the same compound, the “Mean absorbed dose, RBE = 1” value (s.c. BxPC3 tumors; Femoral bone) was 0.27 Gy, the “Mean absorbed dose, RBE = 5” value (s.c. BxPC3 tumors; Femoral bone) was 1.33 Gy and the “Mean absorbed dose, RBE = 1” value (s.c. BxPC3 tumors; Heart) was 0.33 Gy. The “Mean absorbed dose, RBE = 5” value (s.c. BxPC3 tumors; Heart) was 1.63 Gy, the “Mean absorbed dose, RBE = 1” value (s.c. BxPC3 tumors; Kidneys) was 1.43 Gy and the “Mean absorbed dose, RBE = 5” value (s.c. BxPC3 tumors; Kidneys) was 7.14 Gy. For the same compound, the “Mean absorbed dose, RBE = 1” value (s.c. BxPC3 tumors; Liver) was 0.22 Gy, the “Mean absorbed dose, RBE = 5” value (s.c. BxPC3 tumors; Liver) was 1.09 Gy and the “Mean absorbed dose, RBE = 1” value (s.c. BxPC3 tumors; Lung) was 1.34 Gy. For the same compound, the “Mean absorbed dose, RBE = 5” value (s.c. BxPC3 tumors; Lung) was 6.69 Gy, the “Mean absorbed dose, RBE = 1” value (s.c. BxPC3 tumors; Muscle) was 0.29 Gy and the “Mean absorbed dose, RBE = 5” value (s.c. BxPC3 tumors; Muscle) was 1.47 Gy. For the same compound, the “Mean absorbed dose, RBE = 1” value (s.c. BxPC3 tumors; Pancreas) was 0.36 Gy, the “Mean absorbed dose, RBE = 5” value (s.c. BxPC3 tumors; Pancreas) was 1.80 Gy and the “Mean absorbed dose, RBE = 1” value (s.c. BxPC3 tumors; Serum) was 1.64 Gy. The “Mean absorbed dose, RBE = 5” value (s.c. BxPC3 tumors; Serum) was 8.20 Gy, the “Mean absorbed dose, RBE = 1” value (s.c. BxPC3 tumors; Skin) was 0.47 Gy and the “Mean absorbed dose, RBE = 5” value (s.c. BxPC3 tumors; Skin) was 2.33 Gy. For the same compound, the “Mean absorbed dose, RBE = 1” value (s.c. BxPC3 tumors; Small intestine) was 0.22 Gy, the “Mean absorbed dose, RBE = 5” value (s.c. BxPC3 tumors; Small intestine) was 1.08 Gy and the “Mean absorbed dose, RBE = 1” value (s.c. BxPC3 tumors; Spleen) was 0.27 Gy. For the same compound, the “Mean absorbed dose, RBE = 5” value (s.c. BxPC3 tumors; Spleen) was 1.36 Gy, the “Mean absorbed dose, RBE = 1” value (s.c. BxPC3 tumors; Stomach) was 0.24 Gy and the “Mean absorbed dose, RBE = 5” value (s.c. BxPC3 tumors; Stomach) was 1.20 Gy. The “Mean absorbed dose, RBE = 1” value (s.c. BxPC3 tumors; Tail) was 0.54 Gy, the “Mean absorbed dose, RBE = 5” value (s.c. BxPC3 tumors; Tail) was 2.69 Gy and the “Mean absorbed dose, RBE = 1” value (s.c. BxPC3 tumors; Tumor (BxPC3)) was 19.91 Gy. For the same compound, the “Mean absorbed dose, RBE = 5” value (s.c. BxPC3 tumors; Tumor (BxPC3)) was 99.55 Gy, the “Mean absorbed dose, RBE = 1” value (s.c. BxPC3 tumors; Uterus) was 0.61 Gy and the “Mean absorbed dose, RBE = 5” value (s.c. BxPC3 tumors; Uterus) was 3.04 Gy.
